The source of these data is the supplement of paper PMC10702517.

Each structure is given as a SMILES string. ± gives the standard deviation.

A short description of series [1]: chemical recovery by SPE of plasma after PDMS sampling; higher = better extraction. Conditions: pooled human plasma, extraction method: HLB SPE of plasma after PES.
The nature of series [2]: chemical recovery into PDMS from spiked human plasma; higher = better extraction. Conditions: pooled human plasma, extraction method: PES with PDMS.
Series [3] in a line: chemical recovery from spiked human plasma; higher = better extraction. Conditions: pooled human plasma.
[4] abbreviates: extraction method: PES+SPE (3 d PDMS equilibration then HLB SPE).
Where [5] appears, read: extraction method: SPE only (HLB 96-well).
Where [6] appears, read: extraction method: SPE only (HLB 96-well), PES comparison experiment.
Setting [7] is: extraction method: solvent precipitation (ACN + hexane).
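Wherever chemical recovery by SPE of plasma after PDMS sampling is given: over 400 spiked chemicals quantified by LC-HRMS or GC-HRMS via internal standard calibration, recovery relative to spike mix added to unspiked plasma extract to correct matrix effects.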

Regarding `CN1C(=O)CN=C(c2ccccc2)c2cc(Cl)ccc21` [Diazepam], the “chemical recovery by SPE of plasma” value was found to be 9.29 ± 2% in series [1] (equilibration time (d): 1), 6.7 ± 0.88% in series [1] (equilibration time (d): 3) and 4.56 ± 0.4% in series [1] (equilibration time (d): 6). Further, the figures for the “chemical recovery into PDMS” value in series [2] (equilibration time (d): 1), in series [2] (equilibration time (d): 3) and in series [2] (equilibration time (d): 6) were 34.5 ± 1.3%, 40.4 ± 3.4% and 39.3 ± 2%, respectively. Moreover, the chemical recovery in series [3] (setting [4]) is 66.5 ± 10%; in series [3] (setting [5]) it was 56.2 ± 2.7%; in series [3] (setting [6]), 45.5 ± 6.9%; in series [3] (setting [7]) it was 85.2 ± 3.9%.
Regarding `CCOP(=S)(OCC)Oc1cc(C)nc(C(C)C)n1` [Diazinon], the “chemical recovery by SPE of plasma” value worked out at 0.161 ± 0.14% in series [1] (equilibration time (d): 1), 0.223 ± 0.071% in series [1] (equilibration time (d): 3) and 0.073 ± 0.064% in series [1] (equilibration time (d): 6). The “chemical recovery into PDMS” value worked out at 31.2 ± 2.3% in series [2] (equilibration time (d): 1), 34 ± 2.4% in series [2] (equilibration time (d): 3) and 34 ± 0.57% in series [2] (equilibration time (d): 6). The chemical recovery in series [3] (setting [6]) is 38 ± 6.1%; in series [3] (setting [7]), 62.9 ± 4.1%.
On to `Oc1ccc(Cl)cc1Cc1cc(Cl)ccc1O` [Dichlorophen], for which, in series [1] (equilibration time (d): 1), the “chemical recovery by SPE of plasma” value was 53.2 ± 21%. Besides, the “chemical recovery into PDMS” value in series [2] (equilibration time (d): 1) worked out at 0.919 ± 0.12%; in series [2] (equilibration time (d): 3), 1.88 ± 0.2%; in series [2] (equilibration time (d): 6), 2.38 ± 0.74%. Besides, the figures for the chemical recovery in series [3] (setting [4]), in series [3] (setting [6]) and in series [3] (setting [7]) were 78.9 ± 10%, 50.4 ± 7.8% and 45.7 ± 2.1%, respectively.
Consider `OC(c1ccc(Cl)cc1)(c1ccc(Cl)cc1)C(Cl)(Cl)Cl` [Dicofol], for which the “chemical recovery by SPE of plasma” value in series [1] (equilibration time (d): 1) was 11.5 ± 8.1%; in series [1] (equilibration time (d): 3), 15 ± 1.5%; in series [1] (equilibration time (d): 6), 15.2 ± 3.4%. The “chemical recovery into PDMS” value in series [2] (equilibration time (d): 3) is 56.9 ± 18%. The chemical recovery in series [3] (setting [5]) was 0.108 ± 0.017%; in series [3] (setting [6]), 14.4 ± 2.8%; in series [3] (setting [7]), 23.1 ± 0.7%.
With `ClC1=C(Cl)[C@]2(Cl)[C@@H]3[C@@H]4C[C@@H]([C@H]5O[C@@H]45)[C@@H]3[C@@]1(Cl)C2(Cl)Cl` [Dieldrin], in series [1] (equilibration time (d): 1), the “chemical recovery by SPE of plasma” value came out at 0.594 ± 1%. The “chemical recovery into PDMS” value in series [2] (equilibration time (d): 6) turned out to be 97 ± 29%. For the same compound, the chemical recovery in series [3] (setting [5]) worked out at 0.809 ± 0.21%; in series [3] (setting [6]), 8.32 ± 1.5%; in series [3] (setting [7]), 22.5 ± 1.4%.
Regarding `O=C(NC(=O)c1c(F)cccc1F)Nc1ccc(Cl)cc1` [Diflubenzuron], the “chemical recovery by SPE of plasma” value in series [1] (equilibration time (d): 1) was determined as 8.71 ± 3.2%; in series [1] (equilibration time (d): 3), 8.73 ± 0.29%; in series [1] (equilibration time (d): 6), 4.73 ± 0.29%. Also, the results for the “chemical recovery into PDMS” value in series [2] (equilibration time (d): 1), in series [2] (equilibration time (d): 3) and in series [2] (equilibration time (d): 6) were 36.3 ± 2.5%, 38.3 ± 2.3% and 40.4 ± 5%, respectively. The chemical recovery came out at 29.8 ± 6.3% in series [3] (setting [5]) and 48.6 ± 2.1% in series [3] (setting [7]).
As for `COCCN(C(=O)CS(=O)(=O)O)c1c(C)cccc1C` [Dimethachlor ESA], the “chemical recovery by SPE of plasma” value is 46.9 ± 7.3% in series [1] (equilibration time (d): 1), 53.3 ± 3.2% in series [1] (equilibration time (d): 3) and 48 ± 4.5% in series [1] (equilibration time (d): 6). For the same compound, the “chemical recovery into PDMS” value in series [2] (equilibration time (d): 1) was 0.000876 ± 0.0015%; in series [2] (equilibration time (d): 3) it was 0.000445 ± 0.00077%. The chemical recovery in series [3] (setting [6]) was 50.3 ± 3.3%.
As to `COCCN(C(=O)C(=O)O)c1c(C)cccc1C` [Dimethachlor OA], the “chemical recovery by SPE of plasma” value in series [1] (equilibration time (d): 1) was found to be 60.2 ± 9.2%; in series [1] (equilibration time (d): 3), 69.4 ± 2.3%; in series [1] (equilibration time (d): 6) it was 61.4 ± 2.8%. For the same compound, in series [2] (equilibration time (d): 6), the “chemical recovery into PDMS” value is 0.00348 ± 0.006%. For the same compound, the chemical recovery was determined as 28.1 ± 6.4% in series [3] (setting [5]), 51.3 ± 3.7% in series [3] (setting [6]) and 56.8 ± 7.6% in series [3] (setting [7]).
For the compound `COCCN(C(=O)CCl)c1c(C)cccc1C` [Dimethachlor], the figures for the “chemical recovery by SPE of plasma” value in series [1] (equilibration time (d): 1), in series [1] (equilibration time (d): 3) and in series [1] (equilibration time (d): 6) were 2.27 ± 0.1%, 2.96 ± 0.38% and 1.66 ± 0.09%, respectively. Besides, the “chemical recovery into PDMS” value in series [2] (equilibration time (d): 1) amounted to 34.9 ± 0.41%; in series [2] (equilibration time (d): 3), 37.6 ± 4.3%; in series [2] (equilibration time (d): 6), 38 ± 0.68%. Further, the chemical recovery turned out to be 45.9 ± 7% in series [3] (setting [4]), 46.6 ± 1.6% in series [3] (setting [5]), 47.8 ± 7.7% in series [3] (setting [6]) and 63.4 ± 4.6% in series [3] (setting [7]).
Turning to `COCC(C)N(C(=O)CCl)c1c(C)csc1C` (stereo not drawn) [Dimethenamid], the figures for the “chemical recovery by SPE of plasma” value in series [1] (equilibration time (d): 1), in series [1] (equilibration time (d): 3) and in series [1] (equilibration time (d): 6) were 1.45 ± 0.053%, 2.08 ± 0.36% and 1.25 ± 0.1%, respectively. For the same compound, the figures for the “chemical recovery into PDMS” value in series [2] (equilibration time (d): 1), in series [2] (equilibration time (d): 3) and in series [2] (equilibration time (d): 6) were 41.5 ± 0.65%, 46.1 ± 4.6% and 44.9 ± 2.2%, respectively. Moreover, the chemical recovery turned out to be 59.7 ± 19% in series [3] (setting [4]), 53.9 ± 1.1% in series [3] (setting [5]), 46.6 ± 8.4% in series [3] (setting [6]) and 55.4 ± 3.7% in series [3] (setting [7]).
